From US4140770A, “Benzoylethers and processes for their production” (A. Nattermann & Cie. GmbH, priority 1976, dated 1979)
Converted amounts (≈) assume the structure as drawn.

Key:
[1] = Acute toxicity (LD50 mouse); settings: in vivo
[2] = system: intestine of the guinea pig (BaCl2-spasmus); test: Spasmolytic effect, MAGNUS intestine of the guinea pig (against BaCl2-spasmus); settings: Cavia porcellus, read-out: ED50 spasmolytic effect
From the text: 2.1 MAGNUS intestine of the guinea pig (against BaCl2 -spasmus)

BaCl2-spasmus = test: Spasmolysis in situ of a guinea pig modified according to BROCK (against BaCl2-spasmus); assay type: in vivo
From the text: 2.2 Spasmolysis in situ of a guinea pig modified according to BROCK (against BaCl2 -spasmus)

A.femoralis = test: Increase in peripheral vasodilation (A.femoralis), narcotized dog, planimetric evaluation; assay type: in vivo
From the text: 3.2 Increase in peripheral vasodilation (A.femoralis) in the case of the narcotized dog (with planimetric evaluation taking into account the duration of the effect).

coronary = test: Increase in coronary vasodilation (Bretschneider catheter), narcotized dog, planimetric evaluation; assay type: in vivo
From the text: 3.3. Increase in coronary vasodilation (Bretschneider catheter) in the case of a narcotized dog (with planimetric evaluation taking into account the duration of the effect).

Effect on blood pressure = assay type: in vivo
mouse = settings: according to KOMLOS and PETOCZ (1970); cited from earlier work
rat = settings: according to KOMLOS and PETOCZ (1970), cited from earlier work
[3] = Acute toxicity (LD50 rat); settings: in vivo, iv
From the text: +according to KOMLOS and PETOCZ, 20 Arzneimittel-Forschung 1338 (1970)

In the case of COc1ccc(Cc2nccc3cc(OC)c(OC)cc23)cc1OC [Papaverine, reference compound], the LD50 ([1]; iv, read-out: LD50 mouse i.v.) was 44 mg/kg, the IC50 [2] was 0.79 µg/mL (≈ 2.33 µM) and the “inhibition (spasmolysis in situ)” value (BaCl2-spasmus; 5.6 mg/kg i.v.) was 5%. The “inhibition (spasmolysis in situ)” value (BaCl2-spasmus; 10.0 mg/kg i.v.) was 8%, the “inhibition (spasmolysis in situ)” value (BaCl2-spasmus; 17.8 mg/kg i.v.) was 57% and the “Increase in peripheral vasodilation (A.femoralis)” value (from here on “Increase … (A.femoralis)”) (A.femoralis; 3.16 mg/kg i.v.) was “approx. 100 ml × min”. The “Increase … (A.femoralis)” value (A.femoralis; 5.6 mg/kg i.v.) was “approx. 250 ml × min”, the “Increase … (A.femoralis)” value (A.femoralis; 10.0 mg/kg i.v.) was “approx. 180 ml × min” and the “Increase in coronary vasodilation” value (coronary; 5.6 mg/kg i.v.) was “approx. 75 ml × min”. The “Effect on blood pressure” value (Effect on blood pressure; 3.16 mg/kg i.v.) was “approx. 25 mm Hg”, the “Effect on blood pressure” value (Effect on blood pressure; 5.6 mg/kg i.v.) was “approx. 35 mm Hg” and the “Effect on blood pressure” value (Effect on blood pressure; 10.0 mg/kg i.v.) was “approx. 40 mm Hg”. For the same molecule, the LD50 mouse p.o. (mouse) was 343 mg/kg, the LD50 rat i.v. (rat; i.v.) was 18 mg/kg and the LD50 rat p.o. (rat; p.o.) was 325 mg/kg.

Molecule CC[N+](C)(CC)CCOc1c(C)cc(C(=O)CC(c2ccccc2)c2ccccc2)cc1C [BC 96 a] has an LD50 ([1]; iv, read-out: LD50 mouse i.v.) of 7.93 mg/kg and an LD50 ([1]; po, read-out: LD50 mouse p.o.) of 1280 mg/kg.

CCN(CC)CCOc1c(C)cc(C(=O)CC(c2ccccc2)c2ccccc2)cc1C [BC 58, 4-[2-(N,N-diethylamino)-ethoxy]-3,5-dimethyl-β,β-diphenylpropiophenone] showed an LD50 ([1]; iv, read-out: LD50 mouse i.v.) of 60 mg/kg, an LD50 ([1]; po, read-out: LD50 mouse p.o.) of 1900 mg/kg and an LD50 [3] of 54 mg/kg. The IC50 [2] was 0.044 µg/mL (≈ 0.102 µM), the “inhibition (spasmolysis in situ)” value (BaCl2-spasmus; 5.6 mg/kg i.v.) was 55% and the “inhibition (spasmolysis in situ)” value (BaCl2-spasmus; 10.0 mg/kg i.v.) was 67%. For the same molecule, the “inhibition (spasmolysis in situ)” value (BaCl2-spasmus; 17.8 mg/kg i.v.) was 88%, the “Increase … (A.femoralis)” value (A.femoralis; 3.16 mg/kg i.v.) was “approx. 400 ml × min” and the “Increase … (A.femoralis)” value (A.femoralis; 5.6 mg/kg i.v.) was “approx. 800 ml × min”. For the same molecule, the “Increase … (A.femoralis)” value (A.femoralis; 10.0 mg/kg i.v.) was “approx. 2,200 ml × min”, the “duration of the effect (peripheral vasodilation)” value (A.femoralis; versus papaverine, i.v.) was “longer duration of the effect” and the “Increase in coronary vasodilation” value (coronary; 3.16 mg/kg i.v.) was “approx. 350 ml × min”. The “Increase in coronary vasodilation” value (coronary; 5.6 mg/kg i.v.) was “approx. 680 ml × min”, the “Effect on blood pressure” value (Effect on blood pressure; 3.16 mg/kg i.v.) was “approx. 30 mm Hg” and the “Effect on blood pressure” value (Effect on blood pressure; 5.6 mg/kg i.v.) was “approx. 30 mm Hg”. The “Effect on blood pressure” value (Effect on blood pressure; 10.0 mg/kg i.v.) was “approx. 40 mm Hg”.

In the case of CC[N+](CC)(CCOc1c(C)cc(C(=O)CC(c2ccccc2)c2ccccc2)cc1C)Cc1ccccc1 [BC 96 c], the LD50 ([1]; iv, read-out: LD50 mouse i.v.) was 10 to 12 mg/kg and the LD50 ([1]; po, read-out: LD50 mouse p.o.) was ~2000 mg/kg.

Molecule Cc1cc(C(=O)CC(c2ccccc2)c2ccccc2)cc(C)c1OCCN(C)C [BC 77, 4-[2-(N,N-dimethylamino)-ethoxy]-3,5-dimethyl-β,β-diphenylpropiophenone] has an IC50 [2] of 0.79 µg/mL (≈ 1.97 µM).

Molecule Cc1cc(C(=O)CC(c2ccccc2)c2ccccc2)cc(C)c1OCCN(C(C)C)C(C)C [BC 79, 4-[2-(N,N-diisopropylamino)-ethoxy]-3,5-dimethyl-β,β-diphenylpropiophenone] has an IC50 [2] of 0.28 µg/mL (≈ 0.612 µM).
